Assay results published in US8404738B2 (Hoffmann-La Roche Inc., priority 2011, dated 2013).

Tests used:
recombinant human HDAC8 = target: T1, recombinant human HDAC8 (Homo sapiens, UniProt Q9BY41); assay: HDAC8 inhibition: recombinant HDAC8 fluorometric assay; type: biochemical; conditions: recombinant human HDAC8, substrate Ac-Arg-His-Lys-Lys(ε-acetyl)-AMC; read-out: HDAC8 IC50
T1 construct: made in house; host or cells: insect cells
T1 sequence (Q9BY41 1-377): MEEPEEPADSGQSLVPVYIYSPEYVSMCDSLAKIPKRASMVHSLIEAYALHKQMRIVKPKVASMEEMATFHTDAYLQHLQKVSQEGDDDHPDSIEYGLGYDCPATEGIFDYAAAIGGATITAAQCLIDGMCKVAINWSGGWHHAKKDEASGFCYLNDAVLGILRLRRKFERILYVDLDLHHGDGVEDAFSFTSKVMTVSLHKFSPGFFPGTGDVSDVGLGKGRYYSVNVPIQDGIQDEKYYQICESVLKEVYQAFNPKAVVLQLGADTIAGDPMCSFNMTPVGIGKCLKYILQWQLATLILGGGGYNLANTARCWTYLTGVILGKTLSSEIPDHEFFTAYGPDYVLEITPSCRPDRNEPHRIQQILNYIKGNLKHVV
Summary of the method: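 Recombinant human HDAC8 from insect cells was preincubated with compound for 15 min at rt, then given Ac-Arg-His-Lys-Lys(ε-acetyl)-AMC substrate for 30 min at rt. IC50 came from normalized percent inhibition with curve fitting.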

HDAC6 = target: T2, HDAC6 (Homo sapiens, UniProt Q9UBN7); assay: Tubulin acetylation cytoblot assay (A549 cells); type: cell-based; conditions: 17-18 h incubation, tubulin acetylation as marker of HDAC6 inhibition, read-out: Tub-Ac EC50
T2 construct: endogenous in cells; host or cells: A549 cells
T2 sequence (Q9UBN7 1-1215): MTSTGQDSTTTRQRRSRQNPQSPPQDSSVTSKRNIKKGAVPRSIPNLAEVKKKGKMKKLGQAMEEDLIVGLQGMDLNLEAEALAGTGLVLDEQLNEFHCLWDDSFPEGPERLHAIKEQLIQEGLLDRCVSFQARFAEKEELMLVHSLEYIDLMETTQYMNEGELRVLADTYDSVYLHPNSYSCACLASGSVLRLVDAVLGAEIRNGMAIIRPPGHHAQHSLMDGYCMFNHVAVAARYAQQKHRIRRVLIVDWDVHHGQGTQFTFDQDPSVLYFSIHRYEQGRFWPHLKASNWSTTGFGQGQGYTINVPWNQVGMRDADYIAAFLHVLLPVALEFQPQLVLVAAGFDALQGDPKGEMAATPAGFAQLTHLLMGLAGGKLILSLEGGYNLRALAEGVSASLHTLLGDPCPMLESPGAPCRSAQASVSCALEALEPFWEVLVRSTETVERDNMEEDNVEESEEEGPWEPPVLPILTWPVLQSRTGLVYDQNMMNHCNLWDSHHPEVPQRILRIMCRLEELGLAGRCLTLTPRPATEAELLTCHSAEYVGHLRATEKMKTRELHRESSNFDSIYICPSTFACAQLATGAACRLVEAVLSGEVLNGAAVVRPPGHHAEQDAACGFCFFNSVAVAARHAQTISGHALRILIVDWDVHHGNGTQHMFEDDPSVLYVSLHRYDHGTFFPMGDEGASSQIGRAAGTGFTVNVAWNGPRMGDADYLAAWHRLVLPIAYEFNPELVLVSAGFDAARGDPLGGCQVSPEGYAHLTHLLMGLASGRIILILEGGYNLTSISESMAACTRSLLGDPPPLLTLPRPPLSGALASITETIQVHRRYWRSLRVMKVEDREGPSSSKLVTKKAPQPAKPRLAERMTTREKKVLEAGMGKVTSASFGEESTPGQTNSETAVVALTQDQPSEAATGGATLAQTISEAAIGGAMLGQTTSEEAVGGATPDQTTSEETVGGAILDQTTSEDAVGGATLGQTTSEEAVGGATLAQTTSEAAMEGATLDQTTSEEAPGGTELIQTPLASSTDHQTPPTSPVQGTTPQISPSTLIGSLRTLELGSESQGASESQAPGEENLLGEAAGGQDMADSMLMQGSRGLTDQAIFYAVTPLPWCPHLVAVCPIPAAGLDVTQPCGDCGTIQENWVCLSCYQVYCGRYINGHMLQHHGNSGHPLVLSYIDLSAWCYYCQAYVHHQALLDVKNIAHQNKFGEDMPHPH
Summary of the method: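 Cells were exposed to compound for 17-18 h, then fixed with formaldehyde and permeabilized with cold MeOH. They were probed for 4 h at 4° C with anti-acetylated tubulin plus HRP anti-mouse IgG (each 1:750), and read by ECL luminescence. EC50 values came from curves normalized to top and bottom controls.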

[1] = system: p21 promoter-luciferase construct; assay: p21 reporter gene induction (HeLa cells, p21 promoter-luciferase construct); conditions: for p21 RP3: relative gene level of p21 compared to MS275 at 3 μM; for p21 RP10: relative level of p21 compared to MS275 at 10 μM; for p21 RP30: relative level of p21 compared to MS275 at 30 μM;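 on all read-outs here: transfected HeLa cells exposed to compound for 15 h, luciferase luminescence read from lysates, p21 promoter lacks p53 site, proxy for cellular HDAC1/2/3 inhibition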

Compound | IC50 (recombinant human HDAC8) [nM] | EC50 (HDAC6) [nM] | p21 RP3 [1] | p21 RP10 [1] | p21 RP30 [1]
CC1(Nc2ccc(C(=O)NO)cc2)CCN(C(C)(C)c2ccccc2)C1=O (stereo not shown) [Example 64, N-Hydroxy-4-[3-methyl-1-(1-methyl-1-phenyl-ethyl)-2-oxo-pyrrolidin-3-ylamino]-benzamide] | 320 | 10200 | 0.30 | 0.04 | 0.02
O=C(NO)c1ccc(NC2CCN(c3ccccc3)C2=O)cc1F (stereo not shown) [Example 66, 2-Fluoro-N-hydroxy-4-(2-oxo-1-phenyl-pyrrolidin-3-ylamino)-benzamide] | 1250 | 2420 | 0.01 | 0.01 | 0.00
O=C(NO)c1ccc(NC2CCN(c3cccc(Cl)c3)C2=O)cc1F (stereo not shown) [Example 67, 4-[1-(3-Chloro-phenyl)-2-oxo-pyrrolidin-3-ylamino]-2-fluoro-N-hydroxy-benzamide] | 2120 | 6230 | 0.40 | 0.17 | 0.02
O=C(NO)c1ccc(NC2CCN(c3ccccc3)C2=O)c(Cl)c1 (stereo not shown) [Example 69, 3-Chloro-N-hydroxy-4-(2-oxo-1-phenyl-pyrrolidin-3-ylamino)-benzamide] | 850 | 8230 | 0.36 | 0.15 | −0.03
O=C(NO)c1ccc(NC2CC(=O)N(c3cccc(Cl)c3)C2)cc1 (stereo not shown) [Example 72, 4-[1-(3-Chloro-phenyl)-5-oxo-pyrrolidin-3-ylamino]-N-hydroxy-benzamide] | 1480 | 2340 | 0.16 | 0.14 | 0.09
COc1cccc(N2CC(Nc3ccc(C(=O)NO)cc3)CC2=O)c1 (stereo not shown) [Example 74, N-Hydroxy-4-[1-(3-methoxy-phenyl)-5-oxo-pyrrolidin-3-ylamino]-benzamide] | 1010 | 1840 | −0.07 | 0.07 | 0.12
O=C(NO)c1ccc(NC2CC(=O)N(Cc3ccccc3)C2)cc1 (stereo not shown) [Example 75, 4-(1-Benzyl-5-oxo-pyrrolidin-3-ylamino)-N-hydroxy-benzamide] | 860 | 4560 | 0.19 | 0.07 | 0.11
CC1C(=O)N(c2ccc(Cl)cc2)CC1Nc1ccc(C(=O)NO)cc1 (stereo not shown) [Example 78, 4-[1-(4-Chloro-phenyl)-4-methyl-5-oxo-pyrrolidin-3-ylamino]-N-hydroxy-benzamide] | 1830 | 1810 | 0.64 | 0.15 | 0.04
O=C(NO)c1ccc(NC2CCN(c3ccccc3)C2)cc1 (stereo not shown) [Example 79, N-Hydroxy-4-(1-phenyl-pyrrolidin-3-ylamino)-benzamide] | 1700 | 4540 | 0.21 | 0.09 | 0.04
O=C(NO)c1ccc(NC2CCN(c3ccc(Cl)cc3)C2)cc1 (stereo not shown) [Example 80, 4-[1-(4-Chloro-phenyl)-pyrrolidin-3-ylamino]-N-hydroxy-benzamide] | 4650 | 4260 | 0.37 | 0.08 | −0.05
O=C(NO)c1ccc(NC2CCN(c3c(Cl)cccc3Cl)C2)cc1 (stereo not shown) [Example 81, 4-[1-(2,6-Dichloro-phenyl)-pyrrolidin-3-ylamino]-N-hydroxy-benzamide] | 1920 | 720 | 0.08 | −0.04 | −0.01
O=C(NO)c1ccc(NC2CCN(c3ccc(Cl)cc3Cl)C2)cc1 (stereo not shown) [Example 82, 4-[1-(2,4-Dichloro-phenyl)-pyrrolidin-3-ylamino]-N-hydroxy-benzamide] | 2360 | 1430 | 0.14 | −0.08 | −0.06
O=C(NO)c1ccc(NC2CCN(c3ncccn3)C2)cc1 (stereo not shown) [Example 83, N-Hydroxy-4-(1-pyrimidin-2-yl-pyrrolidin-3-ylamino)-benzamide] | 1210 | 1110 | 0.37 | 0.11 | 0.08
O=C(NO)c1ccc(NC2CCN(S(=O)(=O)c3ccc(F)cc3)C2)cc1 (stereo not shown) [Example 85, 4-[1-(4-Fluoro-benzenesulfonyl)-pyrrolidin-3-ylamino]-N-hydroxy-benzamide] | 1120 | 7310 | 0.35 | 0.10 | 0.05
CC1(Nc2ccc(C(=O)NO)cc2)C(=O)N(Cc2ccccc2)c2ccccc21 (stereo not shown) [Example 91, 4-(1-Benzyl-3-methyl-2-oxo-2,3-dihydro-1H-indol-3-ylamino)-N-hydroxy-benzamide] | 1280 | 5230 | 2.06 | 2.66 | 0.84
CC1(Nc2ccc(C(=O)NO)cc2)C(=O)N(Cc2ccccc2Cl)c2ccccc21 (stereo not shown) [Example 92] | 1740 | 330 | 0.56 | 0.20 | 0.40
CC1(Nc2ccc(C(=O)NO)cc2)C(=O)N(Cc2cccc(Cl)c2)c2ccccc21 (stereo not shown) [Example 93, 4-[1-(3-chloro-benzyl)-3-methyl-2-oxo-2,3-dihydro-1H-indol-3-ylamino)-N-hydroxy-benzamide] | 1920 | 410 | 0.58 | 0.12 | 0.05
CC1(Nc2ccc(C(=O)NO)cc2)C(=O)N(c2ccccc2)c2ccccc21 (stereo not shown) [Example 95, N-hydroxy-4-(3-methyl-2-oxo-1-phenyl-2,3-dihydro-1H-indol-3-ylamino)-benzamide] | 850 | 80 | 0.58 | 0.39 | 0.60
CC1(Nc2ccc(C(=O)NO)cc2)C(=O)N(c2cccc(Cl)c2)c2ccccc21 (stereo not shown) [Example 96, 4-[1-(3-chloro-phenyl)-3-methyl-2-oxo-2,3-dihydro-1H-indol-3-ylamino)-N-hydroxy-benzamide] | 1400 | 320 | 0.86 | 1.34 | 0.02
CC1(Nc2ccc(C(=O)NO)cc2)C(=O)N(c2ccc(Cl)cc2)c2ccc(F)cc21 (stereo not shown) [Example 97, 4-[1-(4-Chloro-phenyl)-5-fluoro-3-methyl-2-oxo-2,3-dihydro-1H-indol-3-ylamino]-N-hydroxy-benzamide] | 2080 | 200 | 2.39 | 3.56 | 0.07
